Data published in patent publication US12545735B2, “Anti-met antibodies, bispecific antigen binding molecules that bind met, and methods of use thereof” (REGENERON PHARMACEUTICALS, INC., priority 2016, dated 2026).

How the values were obtained:
Assay type in all cases: cell-based, human
SNU-5 cells = assay: 3-day in vitro cytotoxicity assay (nuclear counts); conditions: 3-day treatment
Experimental: (§1) To determine the relative cell-killing potency of anti-MET antibody drug conjugates (ADCs) described herein, cell-killing assays were run on multiple cells lines expressing varying levels of endogenous MET.
(§2) To measure in vitro cytotoxicity of anti-MET ADCs, nuclear counts after a 3 or 6-day treatment with the ADCs was assessed. […] For cell viability curves, serially diluted ADCs, unconjugated antibodies, or free payloads were added to the cells at final concentrations ranging from 100 nM to 0.01 nM (based on toxin concentration) and incubated for 3 or 6 days at 37° C. in 5% CO2. Cells were subsequently treated with 3 ug/ml Hoechst 33342 nuclear stain (Invitrogen, #H3570) while being fixed with 4% formaldehyde. Images were acquired on the ImageXpress micro XL (Molecular Devices, Sunnyvale, Calif.) and nuclear counts were determined via MetaXpress image analysis software (Molecular Devices, Sunnyvale, Calif.). Background nuclear counts from cells treated with […] digitonin were subtracted from all wells and viability was expressed as a percentage of the untreated controls. IC50 values were determined from a four-parameter logistic equation over a 10-point response curve (GraphPad Prism). The untreated condition for each dose-response curve is also included in the analysis and is represented as the lowest dose.

EBC-1 cells [1] = assay: 3-day in vitro cytotoxicity assay (nuclear counts); conditions: 3-day treatment
Experimental: as §1, §2

NCI-H1993 cells = assay: 3-day in vitro cytotoxicity assay (nuclear counts); conditions: 3-day treatment
Experimental: as §1, §2

MKN-45 cells = assay: 3-day in vitro cytotoxicity assay (nuclear counts); conditions: 3-day treatment
Experimental: as §1, §2

T47D cells [2] = assay: 6-day in vitro cytotoxicity assay (nuclear counts); conditions: 6-day treatment
Experimental: as §1, §2

A549 cells [3] = assay: 6-day in vitro cytotoxicity assay (nuclear counts); conditions: 6-day treatment
Experimental: as §1, §2

EBC-1 cells [4] = assay: 6-day in vitro cytotoxicity assay (nuclear counts); conditions: 6-day treatment
Experimental: as §1, §2

Hs746T cells [5] = assay: 6-day in vitro cytotoxicity assay (nuclear counts); conditions: 6-day treatment
Experimental: as §1, §2

J.RT3 cells = assay: 3-day in vitro cytotoxicity assay (nuclear counts); conditions: 3-day treatment
Experimental: as §1, §2

HEK293 cells = assay: 3-day in vitro cytotoxicity assay (nuclear counts); conditions: 3-day treatment
Experimental: as §1, §2

T47D cells [6] = assay: 3-day in vitro cytotoxicity assay (nuclear counts); conditions: 3-day treatment
Experimental: as §1, §2

A549 cells [7] = assay: 3-day in vitro cytotoxicity assay (nuclear counts); conditions: 3-day treatment
Experimental: as §1, §2

MDA-MB-231 cells = assay: 3-day in vitro cytotoxicity assay (nuclear counts); conditions: 3-day treatment
Experimental: as §1, §2

U87MG cells = assay: 3-day in vitro cytotoxicity assay (nuclear counts); conditions: 3-day treatment
Experimental: as §1, §2

Hs746T cells [8] = assay: 3-day in vitro cytotoxicity assay (nuclear counts); conditions: 3-day treatment
Experimental: as §1, §2

[9] = system: MET pathway in NCI-H596 cells; assay: Immunoblot of MET and ERK phosphorylation, time course; conditions: HGF 50 ng/ml
Experimental: 250,000 NCI-H596 cells were seeded in a 12 well plate and cultured in RPMI Media supplemented with 10% FBS. […] The cells were subsequently incubated in 5% CO2 at 37° C. After 0, 2, 6 or 18 hours, cell lysates were prepared, protein content was normalized and immunoblot analysis was performed. MET phosphorylation and ERK phosphorylation were quantified with the ImageJ image processing program (T. Collins, BioTechniques 43: S25-S30, 2007). Phosphorylation levels were normalized to the Tubulin loading control and are expressed as fold change relative to control treatment.

[10] = system: MET (c-Met) in HEK293/SRE-Luc cells; assay: SRE-luciferase reporter bioassay, blocking of HGF-mediated MET activation; conditions: antibodies plus HGF ligand; result in words
Excerpt: (§3) The ability of anti-MET antibodies to block hepatocyte growth factor (HGF)-mediated MET activation was examined in a luciferase-based reporter assay. The growth factor HGF binds to the extracellular domain of its receptor c-Met (MET), triggering rapid homodimerization and activating several downstream signaling cascades. The anti-MET antibodies tested in this example were bivalent monospecific binders of MET, or anti-MET “bispecifics”, in which each arm of the bispecific antibody bound to a different and distinct epitope on MET. […]
(§4) Next, 2.0×10^5 HEK293/SRE-Luc cells were seeded in luciferase assay media in 96 well plates and incubated overnight at 37° C. in 5% CO2. […] Separately, the ability of the antibodies to activate c-Met in the absence of ligand was also assessed.
(§5) Luciferase activity was detected using the ONE-Glo™ Luciferase Assay System (Promega, Madison, Wis.), and emitted light was measured on a Victor or Envision luminometer (Perkin Elmer, Shelton, Conn.) and expressed as relative light units (RLUs). EC50/IC50 values were determined from a four-parameter logistic equation over a 12-point response curve using […] […]

[11] = system: MET (c-Met) in HEK293/SRE-Luc cells; assay: SRE-luciferase reporter bioassay, ligand (HGF)-independent MET activation; conditions: antibody alone at various concentrations; result in words
Excerpt: as §3, §4, §5

With COc1cc2cc(c1Cl)N(C)C(=O)CC(OC(=O)C(C)N(C)C(=O)CCSSC)C1(C)OC1C(C)C1CC(O)(NC(=O)O1)C(OC)C=CC=C(C)C2 (centres unmarked) [DM1 (MeS-DM1)] the IC50 (SNU-5 cells) was 1.22 nM, the “Max % Kill” value (SNU-5 cells) was 99% and the IC50 (EBC-1 cells [1]) was 2.22 nM. For the same molecule, the “Max % Kill” value (EBC-1 cells [1]) was 90%, the IC50 (NCI-H1993 cells) was 2.86 nM and the “Max % Kill” value (NCI-H1993 cells) was 81%. For the same molecule, the IC50 (MKN-45 cells) was 2.73 nM, the “Max % Kill” value (MKN-45 cells) was 85% and the IC50 (T47D cells [2]) was 0.24 nM. For the same molecule, the “Max % Kill” value (T47D cells [2]) was 96%, the IC50 (A549 cells [3]) was 0.49 nM and the “Max % Kill” value (A549 cells [3]) was 90%. The IC50 (EBC-1 cells [4]) was 0.12 nM, the “Max % Kill” value (EBC-1 cells [4]) was 62% and the IC50 (Hs746T cells [5]) was 1.39 nM. For the same molecule, the “Max % Kill” value (Hs746T cells [5]) was 88%.
In the case of COc1cc2cc(c1Cl)N(C)C(=O)CC(OC(=O)C(C)N(C)C(=O)CCS)C1(C)OC1C(C)C1CC(O)(NC(=O)O1)C(OC)C=CC=C(C)C2 (centres unmarked) [DM1 (free drug)], the IC50 (J.RT3 cells) is reported as 0.07 nM, the “Max % Kill” value (J.RT3 cells) is reported as 100% and the IC50 (HEK293 cells) is reported as 0.15 nM. The “Max % Kill” value (HEK293 cells) was 95%, the IC50 (T47D cells [6]) was 1.33 nM and the “Max % Kill” value (T47D cells [6]) was 91%. For the same molecule, the IC50 (A549 cells [7]) was 2.56 nM, the “Max % Kill” value (A549 cells [7]) was 97% and the IC50 (MDA-MB-231 cells) was 1.53 nM. The “Max % Kill” value (MDA-MB-231 cells) was 89%, the IC50 (U87MG cells) was 0.61 nM and the “Max % Kill” value (U87MG cells) was 89%. The IC50 (Hs746T cells [8]) was 1.46 nM and the “Max % Kill” value (Hs746T cells [8]) was 81%.
With CNCCC(=O)N(C)C(C)C(=O)OC1CC(=O)N(C)c2cc(cc(OC)c2Cl)CC(C)=CC=CC(OC)C2(O)CC(OC(=O)N2)C(C)C2OC12C (centres unmarked) [M24 (Maytansinoid B released payload)] the IC50 (T47D cells [2]) was > 100 nM, the “Max % Kill” value (T47D cells [2]) was 0% and the IC50 (A549 cells [3]) was > 100 nM. For the same molecule, the “Max % Kill” value (A549 cells [3]) was 10%, the IC50 (EBC-1 cells [4]) was > 100 nM and the “Max % Kill” value (EBC-1 cells [4]) was 32%. For the same molecule, the IC50 (Hs746T cells [5]) was > 100 nM and the “Max % Kill” value (Hs746T cells [5]) was 10%.
With “HGF: hepatocyte growth factor, the MET ligand / MET-agonist [reference compound]” the “time of peak activation of MET and ERK” value [9] was 2 h.
“monovalent anti-MET antibody: monovalent MET antibody generated using the heavy and light chain variable sequences of MetMab (U.S. Pat. No. 7,892,550 B2) [reference compound]” was tested, and the “blocking of HGF-dependent MET activation (SRE-luciferase, FIG. 3B, FIG. 4B)” value [10] was “showed greater HGF blocking” and the “MET agonist activity in the absence of HGF ligand (SRE-luciferase, FIG. 3A, FIG. 4A)” value [11] was “neither the monovalent nor the MET×MET bispecific antibody showed MET agonist activity”.
